Legend:
[1] = test system: ketamine-induced perceptual abnormalities in healthy subjects; conditions: 300 mg oral lamotrigine; cited from earlier work
[2] = test system: ketamine-induced psychological disturbances in adults scheduled for elective noncardiac surgery; test: Pilot randomized, double-blind trial of lamotrigine before surgery with ketamine anesthesia; type: in vivo, human
Source text: We report the finding of a pilot randomized and double-blind trial in which we tested the hypothesis that a single 300-mg dose of lamotrigine given a few hours before surgery reduces ketamine-induced psychological disturbances. We enrolled 46 adults (23 Lamotrigine, 23 placebo) 18-65 years who were scheduled for elective noncardiac surgery with general anesthesia with a planned overnight stay at Cleveland Clinic main campus between April 2019 and October 2019. All included patients provided written informed consent during their preoperative clinic visit. The trial was approved by Cleveland Clinic Institutional Review Board and was registered at clinicaltrails.gov [NCT03831854; PI Kamal Maheshwari; February 2019]. It was a priori defined as a pilot trial.
All patients received ketamine 1 mg/kg bolus at induction of anesthesia followed by a 5-μg/kg/min infusion which was stopped at the end of surgery. Anesthesia generally included propofol, a muscle relaxant, fentanyl, and sevoflurane. The primary outcome was presence of the psychologic disturbances measured 30-90 min after admission to the post-anesthesia care unit. We evaluated four key items of the Brief Psychiatric Rating Scale corresponding to positive symptoms of schizophrenia: conceptual disorganization, hallucinatory behavior, suspiciousness, and unusual thought content. Each symptom was rated 1-7 (1=not present, 2=very mild, 3=mild, 4=moderate, 5=moderately severe, 6=severe, 7=extremely severe). Secondary outcomes were opioid use, pain, and postoperative nausea or vomiting in the post-anesthesia care unit.

[3] = test system: psychologic disturbances associated with perioperative ketamine use; conditions: reported range across studies (Avidan et al. 2017); cited from earlier work

Compound	effect on ketamine-induced perceptual abnormalities [1]	pain scores, difference in means lamotrigine vs placebo ([2]; 98.3% CI −1.7, 2.6, P=0.58)	Opioid use, median difference lamotrigine vs placebo ([2]; 98.3% CI −9.5, 5.0, P=0.63)	pain scores, mean±standard deviation ([2]; in the post-anesthesia care unit, lamotrigine 300 mg patients)	patients who experienced nausea or vomiting ([2]; in vivo)	patients with psychologic disturbances (four key items of the Brief Psychiatric Rating Scale) ([2]; single 300-mg dose of lamotrigine a few hours before surgery, ketamine 1 mg/kg bolus then 5-μg/kg/min infusion, measured 30-90 min after admission to post-anesthesia care unit, n=23)	patients who displayed psychologic disturbances ([2]; all trial patients (lamotrigine and placebo groups), moderate dose of ketamine: 1 mg/kg bolus then 5-μg/kg/min infusion)	incidence of psychologic disturbances associated with perioperative ketamine use [3]
Nc1nnc(-c2cccc(Cl)c2Cl)c(N)n1 [lamotrigine]	significantly decreased	0.5	−2.3	4.9±3.1	Five	No patients		
CNC1(c2ccccc2Cl)CCCCC1=O (centres unmarked) [ketamine]							6%	7% to 27
